Data taken from US10774049B2, “PU.1 inhibitors” (Albert Einstein College of Medicine, priority 2016, dated 2020).
Where a name gives a salt, the structure may show the parent alone.

Columns and labels:
LSK cells = assay: Colony assay of Lin−Sca1+c-Kit+ (LSK) cells from wildtype mice; format: cell-based
Procedure: FIG. 5A-5F. PU.1 inhibitors decrease the granulo-monocytic potential of hematopoietic stem and progenitor cells, which is rapidly reversible. (A-C) Lin-Sca1+c-Kit+(LSK) cells were plated in semi-solid media containing PU.1 inhibitors. (A) Number of colony-forming unit granulocyte (CFU-G), monocyte (CFU-M), granulo/monocyte (CFU-GM), granulo/erythrocyte/monocyte/megakaryocyte (CFU-GEMM), burst or colony forming unit erythroid (B/CFU-E) and immature colonies after treatment. Detailed histograms of CFU-GM, CFU-G and CFU-M numbers are shown. Data represent the means±SD of 3 independent experiments. (B) Cells coming from colony assays after vehicle or DB2313 treatment. Cells were cytospun and stained with May-Grünwald Giemsa. Scale bar is equal to 20 μm. (C) FACS analysis showing the percentage of CD11b+Gr1−, CD11b+Gr1+, CD11b−Gr1+, CD41+Ter119−, CD41+Ter119+, CD41−Ter119+ populations after colony assays. Data represent the means±SD of 4 independent experiments. (D,E) Cells coming from colony assays treated with DB2313 were replated in the presence (+DB2313) or in the absence of DB2313 (−DB2313) and the percentage of CD11b+Gr1−, CD11b+Gr1+ cells was assessed one week later after culture in semi-solid media. (D) Representative FACS plots (E) Percentage of CD11b+Gr1− and CD11b+Gr1+ populations. Data represent the means±SD of 3 independent experiments; fold change compared to replating with DB2313 is shown. (F) Serial replating assay with D2313 continuous treatment (n=3). Data represent the means±SD of technical triplicate from one representative experiment. *P<0.05, **P<0.01, ***P<0.001,
In order to determine the effect of our PU.1 inhibitors on normal hematopoietic differentiation, we sorted immature Lin^−Sca1^+c-Kit^+ (LSK) cells from wildtype mice and studied their clonogenic potential following treatment with either DB1976, DB2115, or DB2313. […] Overall, the numbers of viable cells per colony were reduced upon PU.1 inhibitor treatment, again consistent with an effect of PU.1 inhibition on more mature, differentiating cells. […]

[1] = tested on: PU.1 targets Csf1r, Junb, PU.1, E2f1; assay: Quantitative RT-PCR of PU.1 target transcripts in PU.1 URE−/− AML cells; format: cell-based, murine
Procedure: FIG. 3A-3G. Novel inhibitors show on-target PU.1 inhibitory activity. (A) Quantitative RT-PCR analysis of Csf1r, Junb, Sfpi1, E2f1 expression after 72 h (n=6) and, for Csf1r, after 1 h (n=3), 4 h (n=7), 8 h (n=3) and 24 h (n=3) of treatment with the small molecules in URE−/− cells, expression is normalized to GAPDH expression. Data represent means±SD of technical triplicate from one representative experiment; fold change compared to Vehicle is shown. (B) Chromatin immunoprecipitation assay showing PU.1 occupancy on E2f1, Junb, Csf1r promoters after treatment in Umsh cell line (n=5). 10·10^6 cells were collected for each condition after 8 h treatment with a double dose of the small molecules (50 uM for DB1976, 1.4 uM for DB2115 and 660 nM for DB2313) or Vehicle; and processed for ChIP using PU.1 monoclonal antibody. Myogenin was used as a negative control, not regulated by PU.1. Data represent means±SD of technical triplicate from one representative experiment. (C) Cell viability after PU.1 rescue in MOLM13 cells. MOLM13 were transduced with a lentiviral construct expressing either PU.1-GFP (PU.1, black bar) or GFP as a control (empty, white bar), sorted on GFP and plated with DB1976 (n=7), DB2115 (n=8), DB2313 (n=6) or Vehicle. Cell count was performed after 4 days. Data represent means±SD of technical triplicate from one representative experiment; fold change compared to Vehicle is shown. (D-G) Transcriptome analysis of URE−/− cells after 24 h of treatment with DB2313 versus vehicle (n=3). Differentially expressed genes were determined with a fold change at 1.2 and a P value <0.1. (D) Enrichment in genes directly regulated by PU.1 or in genes regulated by the other ETS transcription factors Ets1, Gabpa, Spi-B, Fli-1, using Ingenuity Knowledge Base. The red dotted line represents the significance threshold (−log (P value)>1.3). (E,F) Comparison analysis of deregulated genes in URE−/− cells after DB2313 treatment and in PUER cells after PU.1 induction (GSE13125). Deregulated gens in PUER cells were analyzed with a FC at 1.5 and P-value <0.05. (E) Significant overlap between the 2 datasets, with 484 genes commonly deregulated. P-value was calculated using the hypergeometric test. (F) Comparative analysis of deregulated canonical pathways between the 2 datasets (z-score >2 for PUER dataset). Colored squares indicate activation z-score. (G) Enrichment of PU.1 binding at promoters of all, up- and down-deregulated genes after DB2313 treatment. […]
To assess on-target activity of our inhibitors in AML cells, we measured transcript levels of well-known PU.1 targets in PU.1 URE^−/− AML cells. […] As Csf1r is one of the most sensitive PU.1 targets in myeloid cells, we assessed its expression at different time points (1 h, 4 h, 8 h and 24 h) after drug treatment. […]

[2] = second plating, vs replating with compound

| SMILES | toxicity on LSK cells (LSK cells; majority of colonies unidentifiable, majority of dead cells) | Csf1r, Junb, and PU.1 transcript expression [1] | E2f1 expression [1] | increase of production of mature granulocytes after removing the treatment (LSK cells; [2]) [fold] | increase of production of mature monocytes after removing the treatment (LSK cells; [2]) [fold] |
| --- | --- | --- | --- | --- | --- |
| N=C(N)c1ccc2nc(-c3ccc(-c4nc5ccc(C(=N)N)cc5[nH]4)[se]3)[nH]c2c1 [DB1976] | appeared to show toxicity | – | – | – | – |
| N=C(N)c1ccc2nc(-c3ccc(OCCCCOc4ccc(-c5nc6ccc(C(=N)N)cc6[nH]5)cc4)cc3)[nH]c2c1 [DB2115] | – | decrease | increase | – | – |
| CC(C)NC(=N)c1ccc2nc(-c3ccc(OCc4cccc(COc5ccc(-c6nc7ccc(C(=N)NC(C)C)cc7[nH]6)cc5)c4F)cc3)[nH]c2c1 [DB2313, 3-Bis{4[4(5)-N-isopropylamidinobenzimidazolyl]phenoxymethyl]}-2-fluorobenzene tetrahydrochloride] | – | decrease | increase | 4 | 22 |
